Here are results for 36 compounds from ChEMBL document CHEMBL5241083, “Lysophosphatidic acid (LPA) receptor modulators: Structural features and recent development” (Eur J Med Chem, 2021).

Broadly, the IC50 is the concentration that gives 50% inhibition. What is called EC50 is the midpoint of the concentration-response curve. A lower EC50 goes with greater potency. As usually defined, the Ki is the equilibrium dissociation constant of an inhibitor or competing ligand from its target.

A value given as a limit tells only on which side of the number the result lay.

Test [1] concerns the target T1, Lysophosphatidic acid receptor 2 (Homo sapiens, UniProt Q9HBW0). The test is described as follows: Inhibition of LPA2 receptor (unknown origin).
In test [2] the target is T1, Lysophosphatidic acid receptor 2. The test can be described thus: Antagonist activity at human LPA2 receptor assessed as inhibition of LPA-induced calcium release.
Test [3] concerns the target T2, Lysophosphatidic acid receptor 1 (Homo sapiens, UniProt Q92633). The test can be described thus: Antagonist activity at human LPA1 receptor.
Test [4] concerns the target T3, Lysophosphatidic acid receptor 5 (Homo sapiens, UniProt Q9H1C0). The test is described as follows: Antagonist activity at human LPA5 receptor assessed as inhibition of […] cAMP accumulation incubated for 20 mins. On the technique in general: Changes in cAMP serve as a functional read-out for many G protein-coupled receptors.
Test [5] concerns the target T3, Lysophosphatidic acid receptor 5. The test is described as follows: Antagonist activity at human LPA5 receptor by FLIPR analysis.
The next test concerns HEK-293T. The test can be described thus: Antiproliferative activity against human HEK293T cells assessed as inhibition of cell growth. The format is functional, cell-based.
Test [6] addresses T4, Lysophosphatidic acid receptor 3 (Homo sapiens, UniProt Q9UBY5).
T4 sequence (Q9UBY5 whole entry): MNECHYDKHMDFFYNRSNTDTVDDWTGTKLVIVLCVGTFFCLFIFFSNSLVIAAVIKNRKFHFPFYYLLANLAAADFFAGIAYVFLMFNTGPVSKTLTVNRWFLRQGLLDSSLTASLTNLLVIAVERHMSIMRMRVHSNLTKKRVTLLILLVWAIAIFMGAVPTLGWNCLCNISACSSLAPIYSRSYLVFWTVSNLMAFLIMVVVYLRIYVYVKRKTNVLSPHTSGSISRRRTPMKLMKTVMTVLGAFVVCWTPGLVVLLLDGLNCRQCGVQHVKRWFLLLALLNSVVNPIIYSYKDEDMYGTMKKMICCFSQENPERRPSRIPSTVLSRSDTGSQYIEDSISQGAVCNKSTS
The test can be described thus: Antagonist activity at human LPA3 receptor. The format is cell-based, CHO.

For test [7], the target named is T2, Lysophosphatidic acid receptor 1. The test is described as follows: Antagonist activity at human LPA1 receptor expressed in CHO cells. The format is cell-based.
Test [8] has the same target. The test is described as follows: Antagonist activity at LPA1 receptor (unknown origin) assessed as inhibition constant.
Test [9] has as its target T1, Lysophosphatidic acid receptor 2. The test can be described thus: Antagonist activity at LPA2 receptor (unknown origin).
Test [10] deals with T3, Lysophosphatidic acid receptor 5. The test is described as follows: Antagonist activity at human LPA5 receptor expressed in CHO cells assessed as inhibition of LPA stimulated calcium release incubated for 20 mins followed by […] and measured for 90 seconds. The format is cell-based.

T1 sequence (Q9HBW0 whole entry): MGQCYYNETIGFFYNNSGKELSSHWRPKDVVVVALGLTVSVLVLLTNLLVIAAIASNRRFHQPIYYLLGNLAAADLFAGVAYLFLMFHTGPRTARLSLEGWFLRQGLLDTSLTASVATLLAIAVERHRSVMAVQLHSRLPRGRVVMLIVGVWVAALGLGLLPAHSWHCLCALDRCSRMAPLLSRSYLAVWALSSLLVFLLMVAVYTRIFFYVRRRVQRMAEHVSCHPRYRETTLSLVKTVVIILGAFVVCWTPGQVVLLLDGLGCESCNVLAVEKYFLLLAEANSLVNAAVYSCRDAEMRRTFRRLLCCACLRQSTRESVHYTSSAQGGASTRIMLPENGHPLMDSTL
T2 sequence (Q92633 whole entry): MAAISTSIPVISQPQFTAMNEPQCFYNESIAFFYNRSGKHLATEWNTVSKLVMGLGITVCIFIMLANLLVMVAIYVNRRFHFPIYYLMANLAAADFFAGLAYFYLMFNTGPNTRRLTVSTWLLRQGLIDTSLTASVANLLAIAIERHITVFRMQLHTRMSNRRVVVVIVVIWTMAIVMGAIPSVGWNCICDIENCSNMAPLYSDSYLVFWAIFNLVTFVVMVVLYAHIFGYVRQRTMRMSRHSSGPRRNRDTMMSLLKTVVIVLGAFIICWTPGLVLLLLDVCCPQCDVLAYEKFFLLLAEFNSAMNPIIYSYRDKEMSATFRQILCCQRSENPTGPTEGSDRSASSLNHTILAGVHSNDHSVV
T3 sequence (Q9H1C0 whole entry): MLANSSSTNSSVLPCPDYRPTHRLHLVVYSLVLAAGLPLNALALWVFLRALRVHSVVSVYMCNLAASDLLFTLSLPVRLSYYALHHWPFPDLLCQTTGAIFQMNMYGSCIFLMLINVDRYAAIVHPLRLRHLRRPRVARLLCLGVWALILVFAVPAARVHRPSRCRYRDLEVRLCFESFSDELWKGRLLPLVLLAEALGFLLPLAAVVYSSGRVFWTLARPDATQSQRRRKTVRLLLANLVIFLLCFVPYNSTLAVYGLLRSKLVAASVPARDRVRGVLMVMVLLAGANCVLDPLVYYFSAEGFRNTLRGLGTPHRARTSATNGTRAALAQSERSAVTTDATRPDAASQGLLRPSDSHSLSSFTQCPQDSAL

In test [1], `O=C(Nc1nc2cc(Cl)ccc2[nH]1)C1CC1c1ccccc1` (stereo not given) came in with an IC50 of 10 nM.
In the case of `O=C1CC(O)(C(F)(F)F)c2c(-c3cccc(C(F)(F)F)c3)n[nH]c2N1` (stereo not given), the IC50 in test [2] is < 1000 nM.
With `O=C1CC(O)(C(F)(F)F)c2c(-c3ccc(F)cc3)n[nH]c2N1` (stereo not given), the IC50 in [2] was < 1000 nM.
Consider `COc1ccc(C(=O)NC2(C(=O)O)CCC(C)C2)cc1OCCc1cccc(C)c1` (stereo not given), for which, in test [3], the IC50 was found to be 100 nM.
Consider `CCN1CCCc2ccc(-n3cc(C(=O)N4CCCCC4)c4cc(OC)c(OC)cc4c3=O)cc21`, for which the IC50 in test [4] (filed as antagonist) worked out at 38 nM.
As for `O=C(Nc1nc2cc(C(F)(F)F)ccc2[nH]1)C1CC1c1ccccc1` (stereo not given), in test [1], inhibition was half-maximal at 10 nM (IC50).
In the case of `Cc1c(COC(C)(C)C(=O)NCc2ccc(C(=O)O)cc2)nn(-c2ccc(Cl)cc2Cl)c1-c1ccc(C(F)(F)F)cc1`, inhibition in test [5] was half-maximal at 30 nM (IC50).
As to `O=C1CC(O)(C(F)(F)F)c2c(-c3ccncc3)n[nH]c2N1` (stereo not given), the half-inhibitory concentration (IC50) in test [2] was < 1000 nM.
As for `CCCCCCCC/C=C/CCCCCCCC(=O)N[C@H](COP(=O)(O)O)Cc1ccc(OCc2ccccc2)cc1`, in the test with HEK-293T, the IC50 was determined as 130 nM.
Consider `O=C1CC(O)(C(F)(F)F)c2c(-c3cccs3)n[nH]c2N1` (stereo not given), for which the IC50 in test [2] is < 1000 nM.
In the case of `COc1ccc(-c2n[nH]c3c2C(O)(C(F)(F)F)CC(=O)N3)cc1` (stereo not given), in [2], the IC50 is < 1000 nM.
As to `O=C(Nc1nc2ccccc2[nH]1)C1CC1c1ccccc1` (stereo not given), the IC50 in test [1] is < 10 nM.
On to `Cc1noc(-c2ccc(-c3ccc(CC(=O)O)c4c3CCC4)cc2)c1NC(=O)OC(C)c1ccccc1Cl` (stereo not given), for which the EC50 in [6] and in test [7] was < 50 nM each time.
Turning to `O=C1CC(O)(C(F)(F)F)c2c(-c3cccc(F)c3)n[nH]c2N1` (stereo not given), the IC50 in [2] was < 1000 nM.
In test [3], `CSc1ccc(C(=O)NC2(C(=O)O)Cc3ccccc3C2)cc1OCCc1cccc(C)c1` had an IC50 of 100 nM.
Take `Cc1cccc(C2CC2C(=O)Nc2nc3ccccc3[nH]2)c1` (stereo not given): in test [1], the IC50 was determined as 10 nM.
As to `CC(OC(=O)Nc1c(-c2ccc(-c3ccc(C4(C(=O)O)CC4)cc3)cc2)oc2cnccc12)c1ccccc1Cl` (stereo not given), the EC50 in [6] and in [7] was < 50 nM each time.
As for `COc1cccc(-c2n[nH]c3c2C(O)(C(F)(F)F)CC(=O)N3)c1` (stereo not given), the IC50 in [2] is < 1000 nM.
`O=C1CC(O)(C(F)(F)F)c2c(-c3cccc(Cl)c3)n[nH]c2N1` (stereo not given): the IC50 in test [2] is < 1000 nM.
For the compound `CC(OC(=O)Nc1c(-c2ccc(-c3ccc(C4(C(=O)O)CC4)cc3)cc2)oc2cnccc12)c1ccccc1` (stereo not given), the EC50 in test [6] and in [7] was < 50 nM in each case.
In the case of `O=C(Nc1nc2ccccc2[nH]1)C1CC1c1ccccc1Cl` (stereo not given), the IC50 in [1] stood at 10 nM.
For the compound `O=C1CC(O)(C(F)(F)F)c2c(-c3cccc(Br)c3)n[nH]c2N1` (stereo not given), in [2], the IC50 was < 1000 nM.
On to `CC1=C(NC(=O)OC(C)c2ccccc2Cl)C(c2ccc(CSCCC(=O)O)cc2)ON1` (stereo not given), for which the Ki in [8] was determined as 6420 nM.
Consider `Fc1ccc(CN2CCCCC2c2cc3ccccc3[nH]2)cc1` (stereo not given), for which the IC50 in test [9] is < 500 nM.
On to `Cc1c(COC(C)(C)C(=O)NCc2ccc(C(=O)O)cc2)nn(-c2ccccc2Cl)c1-c1ccc(C(F)(F)F)cc1`, for which half-maximal inhibition in test [5] (IC50) required 1300 nM.
Regarding `Cc1cccc(CN2C(C)CCCC2c2cc3cc(F)ccc3[nH]2)c1` (stereo not given), the IC50 in [9] was < 500 nM.
`CCC1CC1(NC(=O)c1ccc(OC)c(OCCc2cccc(C)c2)c1)C(=O)O` (stereo not given) returned an IC50 in [3] of 100 nM.
Consider `COc1cc2c(C(=O)N3CCCCC3)cn(-c3noc4ccc(C)cc34)c(=O)c2cc1OC`, for which the IC50 in [4] amounted to 38 nM.
As for `O=C1CC(O)(C(F)(F)F)c2c(-c3ccccc3)n[nH]c2N1` (stereo not given), the IC50 in test [2] was < 1000 nM.
Consider `Cc1ccc(-c2n[nH]c3c2C(O)(C(F)(F)F)CC(=O)N3)cc1` (stereo not given), for which the IC50 in test [2] is < 1000 nM.
`COc1cc(C(=O)N(CCCc2ccccc2)Cc2ccc(Oc3ccccc3C(=O)O)cc2)cc(OC)c1OC` displayed an IC50 in test [3] of 110 nM.
Compound `COc1ccc(C(=O)NC2(C(=O)O)CC3CCC(C3)C2)cc1OCCc1cccc(C)c1` (stereo not given) had an IC50 in [3] of 100 nM.
Turning to `Cc1cccc(CN2CCCCC2c2cc3ccccc3[nH]2)c1` (stereo not given), the IC50 in test [9] was < 500 nM.
In turn, `COc1ccc(C(=O)NC2(C(=O)O)CCCCCC2)cc1OCCc1cccc(Cl)c1` had an IC50 in test [3] of 100 nM.
With `Cc1c(COC(C)(C)C(=O)NCc2ccc(C(=O)O)cc2)nn(-c2ccc(Cl)cc2Cl)c1-c1ccc(Cl)cc1`, the figures for the IC50 in test [5] and in [10] were 1300 nM and 2900 nM, respectively.
For the compound `COc1ccc(C(=O)NC2(C(=O)O)CCCCCC2)cc1OCCc1cc(Cl)ccc1F`, the IC50 in test [3] is 100 nM.
